Reference: patent publication US6906107B2, “Use of cyclohexenone derivatives for the manufacture of a medicament in the treatment of dysuria” (Meiji Dairies Corporation, priority 2001, dated 2005)

Columns and labels:
STZ-administered rat [1] = assay: Test 1: maximum quantity excreted by single urination, metabolic cage, 24 hours; assay type: in vivo; conditions: STZ 65 mg/kg i.p. rat; Compound 4 i.p. 8 mg/kg daily for 8 weeks; mean ± S.E.; p < 0.05 relative to STZ-administered group
Procedure: Test 1 (Maximum Quantity Excreted by Single Urination)
To a rat, 65 mg/kg of streptozotocin (STZ) was administered intraperitoneally. After intraperitoneal administration of Compound 4, which had been obtained in Preparation Example 4, at a daily dose of 8 mg/kg for 8 weeks from two days after administration of STZ, urination pattern such as urination frequency and urination amount was recorded for 24 hours at 2.5-min intervals by using a metabolic cage.

bladder smooth muscle = assay: Test 3: contractive force of extracted bladder smooth muscle after ischemia-reperfusion of abdominal aorta; assay type: in vivo, rat; conditions: for Contractive force (contraction by carbachol) / Contractive force (contraction by concentrated potassium chloride): 30 minutes ischemia, 30 minutes reperfusion; for Contractive force (contraction by concentrated potassium chloride): potassium chloride 100 mM
Procedure: Test 3 ([…]) Compound 4 obtained in Preparation Example 4 was administered intraperitoneally to a rat immediately before the ischemia at a dose of 0.5, 2.0 and 8.0 mg/kg, and the rat was anesthetized by use of pentobarbital. Following 30 minutes ischemia of abdominal aorta of the rats, the abdominal aorta was subjected to perfusion for 30 minutes. Each bladder was then extracted and fixed in organbath filled with Krebs-Henseleit nutritive solution. By the use of TB-612T transducer (product of Nihonkoden), contractive force of bladder smooth muscle due to carbachol or concentrated potassium chloride (100 mM) was measured.

STZ-administered rat [2] = assay: Test 2: bladder capacity and urination efficiency from intravesical pressure under anesthesia; assay type: in vivo; conditions: Compound 4 i.p. 8 mg/kg daily for 8 weeks, mean ± S.E., p < 0.05 relative to STZ-administered group
Procedure: Test 2 (Bladder Capacity and Urination Efficiency)
In a similar manner to Test 1, Compound 4 obtained in Preparation Example 4 was administered intraperitoneally to a rat at a daily dose of 8 mg/kg for 8 weeks two days after administration of STZ. The intravesical pressure was measured under anesthesia. From the results, the bladder capacity and urination efficiency were determined.
Urination efficiency (%)=100×excreted amount/bladder capacity

[3] = 0.5 mg/kg i.p. immediately before ischemia
[4] = 2.0 mg/kg i.p. immediately before ischemia
[5] = 8.0 mg/kg i.p. immediately before ischemia

CC1=C(CCCCCCCCCCCCCCCO)C(C)(C)CCC1=O [Compound 4, 3-(15-Hydroxypentadecyl)-2,4,4-trimethyl-2-cyclohexen-1-one]
Maximum amount excreted by single urination (STZ-administered rat [1]): 3.71 ± 0.26 mL | Contractive force (contraction by carbachol) (bladder smooth muscle; [3]): 4.5 ± 0.5 g/mm^2 | Contractive force (contraction by concentrated potassium chloride) (bladder smooth muscle; [3]): 3.0 ± 0.4 g/mm^2 | Contractive force (contraction by carbachol) (bladder smooth muscle; [4]): 5.4 ± 0.4 g/mm^2 | Contractive force (contraction by concentrated potassium chloride) (bladder smooth muscle; [4]): 3.9 ± 0.3 g/mm^2 | Contractive force (contraction by carbachol) (bladder smooth muscle; [5]): 6.5 ± 0.5 g/mm^2 | Contractive force (contraction by concentrated potassium chloride) (bladder smooth muscle; [5]): 3.9 ± 0.4 g/mm^2 | Effect on contraction of bladder smooth muscle (in words) (bladder smooth muscle; 0.5, 2.0 and 8.0 mg/kg i.p., summary of Tables 3 and 4): enhances contraction of bladder smooth muscle depending on its dose | Urination efficiency (STZ-administered rat [2]; 100×excreted amount/bladder capacity): 75.0±6.1% | Bladder capacity (STZ-administered rat [2]; urination-inducing bladder capacity): 0.54 ± 0.07 mL
